According to patent publication US20210317134A1, “UBIQUITIN-SPECIFIC-PROCESSING PROTEASE 7 (USP7) MODULATORS AND USES THEREOF” (RAPT THERAPEUTICS, INC., priority 2019, published 2021):

target: USP7 (Homo sapiens, UniProt Q93009); test: USP7 inhibitory potency (Table 1); format: biochemical
Sequence (Q93009 whole entry): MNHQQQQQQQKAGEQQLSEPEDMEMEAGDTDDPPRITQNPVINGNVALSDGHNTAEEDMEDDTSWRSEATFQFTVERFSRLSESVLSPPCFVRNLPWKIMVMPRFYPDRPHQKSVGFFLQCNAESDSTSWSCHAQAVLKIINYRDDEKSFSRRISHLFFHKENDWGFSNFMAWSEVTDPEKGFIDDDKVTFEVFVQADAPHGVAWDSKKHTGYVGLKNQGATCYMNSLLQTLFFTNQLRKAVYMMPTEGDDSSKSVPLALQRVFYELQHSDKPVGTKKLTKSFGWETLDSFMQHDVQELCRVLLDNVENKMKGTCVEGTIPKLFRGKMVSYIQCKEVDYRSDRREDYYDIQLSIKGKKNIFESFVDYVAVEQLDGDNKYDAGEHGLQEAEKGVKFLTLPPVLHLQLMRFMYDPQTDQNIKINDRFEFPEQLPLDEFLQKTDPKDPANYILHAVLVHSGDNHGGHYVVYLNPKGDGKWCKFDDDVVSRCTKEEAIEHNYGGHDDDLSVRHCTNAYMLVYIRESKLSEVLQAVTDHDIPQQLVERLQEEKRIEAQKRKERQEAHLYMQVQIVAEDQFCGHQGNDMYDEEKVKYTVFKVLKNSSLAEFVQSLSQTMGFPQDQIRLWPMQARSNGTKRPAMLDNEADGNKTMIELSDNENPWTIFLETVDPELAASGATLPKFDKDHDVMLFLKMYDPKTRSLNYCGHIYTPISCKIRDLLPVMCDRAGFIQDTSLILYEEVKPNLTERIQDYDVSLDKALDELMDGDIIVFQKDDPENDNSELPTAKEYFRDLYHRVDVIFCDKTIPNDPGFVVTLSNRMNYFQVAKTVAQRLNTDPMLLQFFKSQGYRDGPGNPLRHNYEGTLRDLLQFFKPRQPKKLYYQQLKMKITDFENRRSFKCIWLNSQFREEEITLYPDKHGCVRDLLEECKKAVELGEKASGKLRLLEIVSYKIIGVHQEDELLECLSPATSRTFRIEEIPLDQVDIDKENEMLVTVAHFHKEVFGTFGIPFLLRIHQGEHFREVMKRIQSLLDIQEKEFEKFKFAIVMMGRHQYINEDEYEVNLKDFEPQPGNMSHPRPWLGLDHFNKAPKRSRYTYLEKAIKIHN

**Q.** Which IC50 does the source give for O=C([C@H]1Cc2cc(Cl)cc(-c3ccnc4cc(Cn5c(=O)cc[nH]c5=O)sc34)c2O1)N1CCNCC1 [(R)-3-((7-(5-chloro-2-(piperazine-1-carbonyl)-2,3-dihydrobenzofuran-7-yl)thieno[3,2-b]pyridin-2-yl)methyl)pyrimidine-2,4(1H,3H)-dione] here?
**A.** The IC50 was less than 1000 nM.

**Q.** How did the IC50 turn out when O=C([C@H]1Cc2cc(Cl)cc(-c3ccnc4cc(CN5C(=O)CSC5=O)sc34)c2O1)N1CCNCC1 [(R)-3-((7-(5-chloro-2-(piperazine-1-carbonyl)-2,3-dihydrobenzofuran-7-yl)thieno[3,2-b]pyridin-2-yl)methyl)thiazolidine-2,4-dione] was run?
**A.** Its IC50 is less than 1000 nM.

**Q.** How did the IC50 turn out when Cn1nc2c(c1[C@H]1Cc3cc(Cl)cc(-c4ncnc5ccoc45)c3O1)CNCC2 [(R)-4-(5-chloro-2-(2-methyl-4,5,6,7-tetrahydro-2H-pyrazolo[4,3-c]pyridin-3-yl)-2,3-dihydrobenzofuran-7-yl)furo[3,2-d]pyrimidine] was run?
**A.** Its IC50 is less than 1000 nM.

**Q.** Which IC50 does the source give for Cn1nc2c(c1[C@H]1Cc3cc(Cl)cc(-c4ncnc5ccsc45)c3O1)CNCC2 [(R)-4-(5-chloro-2-(2-methyl-4,5,6,7-tetrahydro-2H-pyrazolo[4,3-c]pyridin-3-yl)-2,3-dihydrobenzofuran-7-yl)thieno[3,2-d]pyrimidine] here?
**A.** The IC50 was less than 1000 nM.

**Q.** How did the IC50 turn out when N#Cc1ccc2c(-c3cc(Cl)cc4c3O[C@@H](c3n[nH]c5c3CNCC5)C4)ccnc2c1 [(R)-4-(5-chloro-2-(4,5,6,7-tetrahydro-1H-pyrazolo[4,3-c]pyridin-3-yl)-2,3-dihydrobenzofuran-7-yl)quinoline-7-carbonitrile] was run?
**A.** The IC50 was less than 1000 nM.

**Q.** How did the IC50 turn out when Cc1cc(-c2cc(Cl)cc3c2O[C@@H](c2onc4c2CNCC4)C3)c2ccc(C#N)cc2n1 [(R)-4-(5-chloro-2-(4,5,6,7-tetrahydroisoxazolo[4,3-c]pyridin-3-yl)-2,3-dihydrobenzofuran-7-yl)-2-methylquinoline-7-carbonitrile] was run?
**A.** The IC50 was 10000 to 30000 nM.

**Q.** For Clc1cc2c(c(-c3ccnc4c3CC3(COCOC3)C4)c1)O[C@@H](c1onc3c1CNCC3)C2 [(R)-4-(5-chloro-2-(4,5,6,7-tetrahydroisoxazolo[4,3-c]pyridin-3-yl)-2,3-dihydrobenzofuran-7-yl)-5,7-dihydrospiro[cyclopenta[b]pyridine-6,5′-[1,3]dioxane]], which IC50 is on record?
**A.** The IC50 was less than 1000 nM.

**Q.** N#Cc1cc2nccc(-c3cc(Cl)cc4c3O[C@@H](c3onc5c3CNCC5)C4)c2cc1F [(R)-4-(5-chloro-2-(4,5,6,7-tetrahydroisoxazolo[4,3-c]pyridin-3-yl)-2,3-dihydrobenzofuran-7-yl)-6-fluoroquinoline-7-carbonitrile] was tested. Which IC50 did it give?
**A.** The IC50 was less than 1000 nM.

**Q.** For Cc1cc2c(-c3cc(Cl)cc4c3O[C@@H](c3onc5c3CNCC5)C4)ccnc2cc1C#N [(R)-4-(5-chloro-2-(4,5,6,7-tetrahydroisoxazolo[4,3-c]pyridin-3-yl)-2,3-dihydrobenzofuran-7-yl)-6-methylquinoline-7-carbonitrile], which IC50 is on record?
**A.** Its IC50 is 1000 to 10000 nM.

**Q.** With N#Cc1ccc2nccc(-c3cc(Cl)cc4c3O[C@@H](c3onc5c3CNCC5)C4)c2c1 [(R)-4-(5-chloro-2-(4,5,6,7-tetrahydroisoxazolo[4,3-c]pyridin-3-yl)-2,3-dihydrobenzofuran-7-yl)quinoline-6-carbonitrile] as the compound, how does the IC50 read?
**A.** Its IC50 is 1000 to 10000 nM.

**Q.** For N#Cc1ccc2c(-c3cc(Cl)cc4c3O[C@@H](c3onc5c3CNCC5)C4)ccnc2c1 [(R)-4-(5-chloro-2-(4,5,6,7-tetrahydroisoxazolo[4,3-c]pyridin-3-yl)-2,3-dihydrobenzofuran-7-yl)quinoline-7-carbonitrile], which IC50 is on record?
**A.** Its IC50 is less than 1000 nM.

**Q.** With NC(=O)c1ccc2c(-c3cc(Cl)cc4c3O[C@@H](c3onc5c3CNCC5)C4)ccnc2c1 [(R)-4-(5-chloro-2-(4,5,6,7-tetrahydroisoxazolo[4,3-c]pyridin-3-yl)-2,3-dihydrobenzofuran-7-yl)quinoline-7-carboxamide] as the compound, how does the IC50 read?
**A.** The IC50 was 1000 to 10000 nM.

**Q.** Which IC50 does the source give for CN1CCc2noc([C@H]3Cc4cc(Cl)cc(-c5ccnc6cc(C#N)ccc56)c4O3)c2C1 [(R)-4-(5-chloro-2-(5-methyl-4,5,6,7-tetrahydroisoxazolo[4,3-c]pyridin-3-yl)-2,3-dihydrobenzofuran-7-yl)quinoline-7-carbonitrile] here?
**A.** Its IC50 is 1000 to 10000 nM.

**Q.** With Clc1cc2c(c(-c3ccnc4ccsc34)c1)O[C@@H](c1ocnc1CN1CCC1)C2 [(R)-4-(azetidin-1-ylmethyl)-5-(5-chloro-7-(thieno[3,2-b]pyridin-7-yl)-2,3-dihydrobenzofuran-2-yl)oxazole] as the compound, how does the IC50 read?
**A.** The IC50 was less than 1000 nM.

**Q.** For CNCCNC(=O)[C@H]1Cc2cc(Cl)cc(-c3ccnc4cc(CO)sc34)c2O1 [(R)-5-chloro-7-(2-(hydroxymethyl)thieno[3,2-b]pyridin-7-yl)-N-(2-(methylamino)ethyl)-2,3-dihydrobenzofuran-2-carboxamide], which IC50 is on record?
**A.** Its IC50 is less than 1000 nM.

**Q.** For N#Cc1cc2c(c(-c3ccnc4cc(CO)sc34)c1)O[C@@H](C(=O)N1CCNCC1)C2 [(R)-7-(2-(hydroxymethyl)thieno[3,2-b]pyridin-7-yl)-2-(piperazine-1-carbonyl)-2,3-dihydrobenzofuran-5-carbonitrile], which IC50 is on record?
**A.** Its IC50 is less than 1000 nM.

**Q.** For Cn1nc([C@H]2Cc3cc(Cl)cc(-c4ccnc5ccsc45)c3O2)c2c1CCNC2 [(R)-7-(5-chloro-2-(1-methyl-4,5,6,7-tetrahydro-1H-pyrazolo[4,3-c]pyridin-3-yl)-2,3-dihydrobenzofuran-7-yl)thieno[3,2-b]pyridine], which IC50 is on record?
**A.** The IC50 was 1000 to 10000 nM.

**Q.** Cn1nc2c(c1[C@H]1Cc3cc(Cl)cc(-c4ccnc5ccsc45)c3O1)CNCC2 [(R)-7-(5-chloro-2-(2-methyl-4,5,6,7-tetrahydro-2H-pyrazolo[4,3-c]pyridin-3-yl)-2,3-dihydrobenzofuran-7-yl)thieno[3,2-b]pyridine] was tested. Which IC50 did it give?
**A.** The IC50 was less than 1000 nM.

**Q.** With Clc1cc2c(c(-c3ccnc4ccsc34)c1)O[C@@H](c1[nH]nc3c1CNCC3)C2 [(R)-7-(5-chloro-2-(4,5,6,7-tetrahydro-2H-pyrazolo[4,3-c]pyridin-3-yl)-2,3-dihydrobenzofuran-7-yl)thieno[3,2-b]pyridine] as the compound, how does the IC50 read?
**A.** The IC50 was less than 1000 nM.

**Q.** How did the IC50 turn out when N#Cc1cc2nccc(-c3cc(Cl)cc4c3O[C@@H](C(=O)N3CCNCC3)C4)c2o1 [(R)-7-(5-chloro-2-(piperazine-1-carbonyl)-2,3-dihydrobenzofuran-7-yl)furo[3,2-b]pyridine-2-carbonitrile] was run?
**A.** Its IC50 is 1000 to 10000 nM.

**Q.** N#Cc1cc2nccc(-c3cc(Cl)cc4c3O[C@@H](C(=O)N3CCNCC3)C4)c2s1 [(R)-7-(5-chloro-2-(piperazine-1-carbonyl)-2,3-dihydrobenzofuran-7-yl)thieno[3,2-b]pyridine-2-carbonitrile] was tested. Which IC50 did it give?
**A.** The IC50 was 1000 to 10000 nM.

**Q.** Which IC50 does the source give for Cn1nc([C@H]2Cc3cc(Cl)cc(-c4ccnc5cc(Cl)ccc45)c3O2)c2c1CCNC2 [(R)-7-chloro-4-(5-chloro-2-(1-methyl-4,5,6,7-tetrahydro-1H-pyrazolo[4,3-c]pyridin-3-yl)-2,3-dihydrobenzofuran-7-yl)quinoline] here?
**A.** The IC50 was 10000 to 30000 nM.

**Q.** For Cn1nc2c(c1[C@H]1Cc3cc(Cl)cc(-c4ncnc5cc(Cl)ccc45)c3O1)CNCC2 [(R)-7-chloro-4-(5-chloro-2-(2-methyl-4,5,6,7-tetrahydro-2H-pyrazolo[4,3-c]pyridin-3-yl)-2,3-dihydrobenzofuran-7-yl)quinazoline], which IC50 is on record?
**A.** Its IC50 is less than 1000 nM.

**Q.** For Clc1cc2c(c(-c3ccnc4cc(Cl)ccc34)c1)O[C@@H](c1[nH]nc3c1CNCC3)C2 [(R)-7-chloro-4-(5-chloro-2-(4,5,6,7-tetrahydro-2H-pyrazolo[4,3-c]pyridin-3-yl)-2,3-dihydrobenzofuran-7-yl)quinoline], which IC50 is on record?
**A.** The IC50 was 1000 to 10000 nM.

**Q.** Cn1nc2c(c1[C@H]1Cc3cc(Cl)cc(-c4ncnc5cc(CO)oc45)c3O1)CNCC2 [(R)-(4-(5-chloro-2-(2-methyl-4,5,6,7-tetrahydro-2H-pyrazolo [4,3-c]pyridin-3-yl)-2,3-dihydrobenzofuran-7-yl)furo[3,2-d]pyrimidin-6-yl)methanol] was tested. Which IC50 did it give?
**A.** The IC50 was less than 1000 nM.

**Q.** For Cn1nc2c(c1[C@H]1Cc3cc(Cl)cc(-c4ncnc5cc(CO)sc45)c3O1)CNCC2 [(R)-(4-(5-chloro-2-(2-methyl-4,5,6,7-tetrahydro-2H-pyrazolo[4,3-c]pyridin-3-yl)-2,3-dihydrobenzofuran-7-yl)thieno[3,2-d]pyrimidin-6-yl)methanol], which IC50 is on record?
**A.** The IC50 was less than 1000 nM.

**Q.** With OCC1(CO)Cc2nccc(-c3cc(Cl)cc4c3O[C@@H](c3onc5c3CNCC5)C4)c2C1 [(R)-(4-(5-chloro-2-(4,5,6,7-tetrahydroisoxazolo[4,3-c]pyridin-3-yl)-2,3-dihydrobenzofuran-7-yl)-6,7-dihydro-5H-cyclopenta[b]pyridine-6,6-diyl)dimethanol] as the compound, how does the IC50 read?
**A.** Its IC50 is 1000 to 10000 nM.

**Q.** OCc1cc2ncnc(-c3cc(Cl)cc4c3O[C@@H](c3onc5c3CNCC5)C4)c2o1 [(R)-(4-(5-chloro-2-(4,5,6,7-tetrahydroisoxazolo[4,3-c]pyridin-3-yl)-2,3-dihydrobenzofuran-7-yl)furo[3,2-d]pyrimidin-6-yl)methanol] was tested. Which IC50 did it give?
**A.** The IC50 was less than 1000 nM.

**Q.** NCc1cc(-c2cc(Cl)cc3c2O[C@@H](c2onc4c2CNCC4)C3)c2ccccc2n1 [(R)-(4-(5-chloro-2-(4,5,6,7-tetrahydroisoxazolo[4,3-c]pyridin-3-yl)-2,3-dihydrobenzofuran-7-yl)quinolin-2-yl)methanamine] was tested. Which IC50 did it give?
**A.** Its IC50 is 1000 to 10000 nM.

**Q.** Which IC50 does the source give for OCc1ccc2c(-c3cc(Cl)cc4c3O[C@@H](c3onc5c3CNCC5)C4)ccnc2c1 [(R)-(4-(5-chloro-2-(4,5,6,7-tetrahydroisoxazolo[4,3-c]pyridin-3-yl)-2,3-dihydrobenzofuran-7-yl)quinolin-7-yl)methanol] here?
**A.** The IC50 was less than 1000 nM.

**Q.** For OCc1cc2ncnc(-c3cc(Cl)cc4c3O[C@@H](c3onc5c3CNCC5)C4)c2s1 [(R)-(4-(5-chloro-2-(4,5,6,7-tetrahydroisoxazolo[4,3-c]pyridin-3-yl)-2,3-dihydrobenzofuran-7-yl)thieno[3,2-d]pyrimidin-6-yl)methanol], which IC50 is on record?
**A.** Its IC50 is less than 1000 nM.

**Q.** Which IC50 does the source give for O=C([C@H]1Cc2cc(Cl)cc(-c3ccnc4[nH]ccc34)c2O1)N1CCC(CCO)CC1 [(R)-(5-chloro-7-(1H-pyrrolo[2,3-b]pyridin-4-yl)-2,3-dihydrobenzofuran-2-yl)(4-(2-hydroxyethyl)piperidin-1-yl)methanone] here?
**A.** Its IC50 is 10000 to 30000 nM.

**Q.** With O=C([C@H]1Cc2cc(Cl)cc(-c3ccnc4[nH]ccc34)c2O1)N1CCNCC1 [(R)-(5-chloro-7-(1H-pyrrolo[2,3-b]pyridin-4-yl)-2,3-dihydrobenzofuran-2-yl)(piperazin-1-yl)methanone] as the compound, how does the IC50 read?
**A.** The IC50 was less than 1000 nM.

**Q.** O=C([C@H]1Cc2cc(Cl)cc(-c3ccnc4cc(CCO)sc34)c2O1)N1CCNCC1 [(R)-(5-chloro-7-(2-(2-hydroxyethyl)thieno[3,2-b]pyridin-7-yl)-2,3-dihydrobenzofuran-2-yl)(piperazin-1-yl)methanone] was tested. Which IC50 did it give?
**A.** Its IC50 is less than 1000 nM.
